Results on 10 molecules are retold here after US9090599B2, “Heteroarylmethyl amides” (Hoffman-La Roche Inc., priority 2010, dated 2015).

Usually EC50 stands for the concentration at which the effect is half-maximal. In general, inhibition refers to the drop in the measured response relative to a control, in per cent.

One experiment has as its system ABCA1 protein. Briefly: Detection of upregulation of ABCA1 protein in THP-1 macrophage cells (ApoA-I binding, high content imaging). The format is cell-based. The following applies: 24 hrs with compound, AlexaFluor 647 ApoA-I binding, read-out: ABCA1 protein increasing efficacy EC50. As for the experimental part: The ability of compounds of the invention to increase the level of ABCA1 protein is determined in replicate cultures of THP-1 macrophage cells in 96-well microplates. Cells are plated at an initial density of 100,000 cells/well in 100 μl medium and differentiated to adherent macrophages with the addition of PMA (100 nM) for 68 hrs in 10% fetal bovine serum, 3 μl/L of b-mercaptoethanol, RPMI-1640 medium. Then, cells are incubated with RPMI-1640 medium containing 1% FCS, 25 μg/ml acetylated LDL, for 24 hours at 37°. Following incubation with acetylated LDL, cells are washed twice with 50 μl PBS and incubated with 100 μl of RPMI-1640 medium containing the compound of interest solubilized in DMSO for an additional 24 hrs. The final DMSO concentration in presence of cells is maintained at 0.5%. ApoA-I binding assay using High Content Image Analysis is initiated by replacing with fresh medium, RPMI without Phenol Red, 0.2% BSA containing AlexaFluor®647 labeled ApoA-I for 2 h/37° C./5% CO2. Then, cells are fixed with 4% Formaldehyde in PBS (15 min, RT). Following Nuclei are stained with Hoechst solution (3 μM PBS) and Cytoplasm with Cell Mask Blue (2 μg/ml PBS), 15 min, RT. Finally the stained cells are fixed with a second round of formaldehyde treatment. Fixed stained cells are washed and kept in PBS at 4° C. and can be read immediately until one month after preparation.
The Alexa Fluor 647-labeled Apolipoprotein A-I (20 nM) was prepared as follows: Human recombinant Apolipoprotein A-I (ApoA-I) was exchanged to a buffer of 0.02 M NaHCO3 at pH 8.2 on an NAP desalting column (GE Healthcare) and brought to a concentration to 40 μM (1.13 mg/ml) by adjustment with the same buffer. The ApoA-I was fluorescently labeled by incubation with Alexa Fluor carboxylic acid succimidyl ester. (Alexa Fluor 647, Invitrogen A-20006) at a 2:1 molar ratio (Alexa to ApoA-I) for 1 h under shaking at RT. The remaining unconjugated label was removed by buffer exchange to 0.02M NaHCO3 at pH 8.2.
Imaging and data collection were performed on an OPERA confocal microplate imaging reader using a 20× water immersion objective and UV360 or 405 laser to identify the cell nuclei and a 635 laser to identify the fluorescent ApoA-I. Eight fields of view are captured per well. Image capture and analysis was performed with the Acapella software. Background fluorescence detected in control wells without ApoA-I was subtracted.
Using XLfit3 program (ID Business Solutions Ltd. UK), the model 205 for Dose Response One Site is used to calculate the EC50 values. […] Preferably, the compounds of the present invention have EC50 values in a range of 0.1 μM to 3 μM.

A further experiment concerns the target T1, human CB1 receptor (Homo sapiens, UniProt P21554).
T1 construct: expressed in transfected cells; host or cells: human embryonic kidney (HEK) cells, Semliki Forest Virus system, membrane preparations
Briefly: CB1 receptor affinity, [3H]-CP-55,940 displacement, HEK cell membranes. It counts as binding. As to conditions: 10 μM compound, radioligand [3H]-CP-55,940; read-out: CB1 receptor affinity [% inhibition @ 10 μM]. In short, it runs like this:
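Membranes from HEK cells transiently expressing human CB1 (Semliki Forest Virus system) incubated with [3H]-CP-55,940 with or without test compound. Bound and free ligand separated by glass-fibre filtration and bound radioactivity counted by scintillation. Compounds tested at 10 μM, values reported as % inhibition of radioligand binding.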

The target in another experiment is T2, human CB2 receptor (Homo sapiens, UniProt P34972).
T2 construct: expressed in transfected cells; host or cells: human embryonic kidney (HEK) cells, Semliki Forest Virus system, membrane preparations
T2 sequence (P34972 whole entry): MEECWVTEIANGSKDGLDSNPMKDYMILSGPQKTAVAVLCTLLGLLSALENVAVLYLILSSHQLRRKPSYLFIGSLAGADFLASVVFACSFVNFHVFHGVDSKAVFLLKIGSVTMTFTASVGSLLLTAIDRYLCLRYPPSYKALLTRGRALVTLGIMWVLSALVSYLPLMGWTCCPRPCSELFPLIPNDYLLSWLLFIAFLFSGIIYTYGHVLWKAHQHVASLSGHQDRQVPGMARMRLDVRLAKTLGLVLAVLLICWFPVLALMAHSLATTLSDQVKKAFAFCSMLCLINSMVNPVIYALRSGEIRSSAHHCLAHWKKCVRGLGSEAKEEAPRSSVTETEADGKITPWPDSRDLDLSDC
The experiment in a line: CB2 receptor affinity, [3H]-CP-55,940 displacement, HEK cell membranes. The format is binding. As to conditions: 10 μM compound, radioligand [3H]-CP-55,940. In short, it runs like this: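 Membranes from HEK cells transiently expressing human CB2 (Semliki Forest Virus) incubated with [3H]-CP-55,940 ± compound at 10 μM. Bound ligand separated by glass-fibre filtration and counted by scintillation; reported as % inhibition at 10 μM.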

T1 sequence (P21554 whole entry): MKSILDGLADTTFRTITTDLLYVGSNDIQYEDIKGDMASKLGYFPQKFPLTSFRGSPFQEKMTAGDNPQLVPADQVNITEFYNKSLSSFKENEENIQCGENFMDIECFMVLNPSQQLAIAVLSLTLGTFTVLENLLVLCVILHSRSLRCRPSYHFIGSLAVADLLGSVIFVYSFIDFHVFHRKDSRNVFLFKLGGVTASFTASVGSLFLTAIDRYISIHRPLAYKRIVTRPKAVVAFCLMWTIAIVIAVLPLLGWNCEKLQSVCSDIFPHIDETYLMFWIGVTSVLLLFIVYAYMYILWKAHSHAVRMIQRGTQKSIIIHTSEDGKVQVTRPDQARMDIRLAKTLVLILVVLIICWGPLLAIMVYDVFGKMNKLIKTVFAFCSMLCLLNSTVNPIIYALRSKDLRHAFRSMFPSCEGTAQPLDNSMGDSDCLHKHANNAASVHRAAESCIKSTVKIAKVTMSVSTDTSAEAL

Take `O=C(NCc1nc(C(F)(F)F)no1)c1cnc(OCC(F)(F)F)c(-c2ccc(F)c(Cl)c2)c1` [Example 81, 5-(3-chloro-4-fluorophenyl)-6-(2,2,2-trifluoroethoxy)-N-((3-(trifluoromethyl)-1,2,4-oxadiazol-5-yl)methyl)nicotinamide]: the half-maximal effective concentration (EC50) with ABCA1 protein was 890 nM. Also, the figures for the inhibition at 10 µM on human CB1 receptor and at human CB2 receptor were 4% and 7%, respectively.
On the same counts, the results for `COc1cc(CNC(=O)c2cnc(OCC(F)(F)F)c(-c3ccc(Cl)cc3)c2)on1` [Example 5, 5-(4-chloro-phenyl)-N-(3-methoxy-isoxazol-5-ylmethyl)-6-(2,2,2-trifluoro-ethoxy)-nicotinamide] are 2100 nM, 48% and 5%.
As for `O=C(NCc1nc(C(F)(F)F)no1)c1cc(-c2ccc(Cl)cc2)c(OCC(F)(F)F)nn1` [Example 46, 5-(4-chloro-phenyl)-6-(2,2,2-trifluoro-ethoxy)-pyridazine-3-carboxylic acid (3-trifluoromethyl-[1,2,4]oxadiazol-5-ylmethyl)-amide], in the experiment on ABCA1 protein, the EC50 worked out at 780 nM. Also, the inhibition at 10 µM stood at 30% at human CB1 receptor and 0% on human CB2 receptor.
With `O=C(NCc1nc(C(F)(F)F)no1)c1cnc(OCC(F)(F)F)c(-c2ccc3nonc3c2)c1` [Example 100, 5-Benzo[1,2,5]oxadiazol-5-yl-6-(2,2,2-trifluoro-ethoxy)-N-(3-trifluoromethyl-[1,2,4]oxadiazol-5-yl-methyl)-nicotinamide], the EC50 with ABCA1 protein worked out at 580 nM. Also, the inhibition at 10 µM at human CB1 receptor came out at 15%; on human CB2 receptor it was 8%.
As for `CC(C)c1cc(CNC(=O)c2ncc(OCC(F)(F)F)c(-c3ccc(Cl)cc3)n2)on1` [Example 44, 4-(4-chloro-phenyl)-5-(2,2,2-trifluoro-ethoxy)-pyrimidine-2-carboxylic acid (3-isopropyl-isoxazol-5-ylmethyl)-amide], in the experiment on ABCA1 protein, the EC50 turned out to be 1020 nM. Moreover, the inhibition at 10 µM at human CB1 receptor amounted to 29%; on human CB2 receptor it was 8%.
On the same counts, the results for `CCCn1ccc(CNC(=O)c2cnc(OCC(F)(F)F)c(-c3ccc(Cl)cc3)c2)n1` [Example 14, 5-(4-chloro-phenyl)-N-(1-propyl-1H-pyrazol-3-ylmethyl)-6-(2,2,2-trifluoro-ethoxy)-nicotinamide] are 950 nM, 48% and 12%.
On the same counts, the results for `Cc1cc(-c2cc(C(=O)NCc3nc(C(F)(F)F)no3)cnc2OCC(F)(F)F)ccc1Cl` [Example 72, 5-(4-chloro-3-methylphenyl)-6-(2,2,2-trifluoroethoxy)-N-((3-(trifluoromethyl)-1,2,4-oxadiazol-5-yl)methyl)nicotinamide] are 500 nM, 34% and -1%.
For `C[C@H](Oc1ncc(C(=O)NCc2nc(C(F)(F)F)no2)cc1-c1ccc(Cl)cc1)C(F)(F)F` [Example 38, (S)-5-(4-chlorophenyl)-N-((3-(trifluoromethyl)-1,2,4-oxadiazol-5-yl)methyl)-6-(1,1,1-trifluoropropan-2-yloxy)nicotinamide], in that order: 950 nM, 32% and -2%.
Consider `O=C(NCc1coc(C2CC2)n1)c1cc(-c2ccc(Cl)cc2)c(OCC(F)(F)F)cn1` [Example 70, 4-(4-chlorophenyl)-N-((2-cyclopropyloxazol-4-yl)methyl)-5-(2,2,2-trifluoroethoxy)picolinamide], for which the EC50 in the experiment with ABCA1 protein worked out at 1560 nM. For the same molecule, the inhibition at 10 µM is 28% on human CB1 receptor and 14% on human CB2 receptor.
For `O=C(NCc1cc(C(F)(F)F)no1)c1cc(-c2ccc(Cl)cc2)c(OCC(F)(F)F)nn1` [Example 60, 5-(4-chloro-phenyl)-6-(2,2,2-trifluoro-ethoxy)-pyridazine-3-carboxylic acid (3-trifluoromethyl-isoxazol-5-ylmethyl)-amide], in that order: 750 nM, 30% and -3%.
